Assay results as given in ChEMBL document CHEMBL1155960, “Design, synthesis and preliminary biological evaluation of acridine compounds as potential agents for a combined targeted chemo-radionuclide therapy approach to melanoma” (Bioorg Med Chem, 2008).

Columns and labels:
[1] = mouse, in vivo, iv, 72 h
Description: Biodistribution in melanoma of C57BL/6 mouse bearing mouse B16-F0 cells at 0.74 to 0.92 MBq, iv after 72 hrs

Brain [2] = details: mouse, in vivo, iv, 1 h
Description: Biodistribution in brain of C57BL/6 mouse bearing mouse B16-F0 cells at 0.74 to 0.92 MBq, iv after 1 hr

Brain [3] = details: mouse, in vivo, iv, 3 h
Description: Biodistribution in brain of C57BL/6 mouse bearing mouse B16-F0 cells at 0.74 to 0.92 MBq, iv after 3 hrs

[4] = mouse, in vivo, iv, 1 h
Description: Biodistribution in intestinal content of C57BL/6 mouse bearing mouse B16-F0 cells at 0.74 to 0.92 MBq, iv after 1 hr

[5] = mouse, in vivo, iv, 3 h
Description: Biodistribution in intestinal content of C57BL/6 mouse bearing mouse B16-F0 cells at 0.74 to 0.92 MBq, iv after 3 hrs

[6] = mouse, in vivo, iv, 6 h
Description: Biodistribution in intestinal content of C57BL/6 mouse bearing mouse B16-F0 cells at 0.74 to 0.92 MBq, iv after 6 hrs

Liver [7] = details: mouse, in vivo, iv, 3 h
Description: Biodistribution in liver of C57BL/6 mouse bearing mouse B16-F0 cells at 0.74 to 0.92 MBq, iv after 3 hrs

Liver [8] = details: mouse, in vivo, iv, 24 h
Description: Biodistribution in liver of C57BL/6 mouse bearing mouse B16-F0 cells at 0.74 to 0.92 MBq, iv after 24 hrs

Muscle tissue [9] = details: mouse, in vivo, iv, 1 h
Description: Biodistribution in muscle of C57BL/6 mouse bearing mouse B16-F0 cells at 0.74 to 0.92 MBq, iv after 1 hr

Muscle tissue [10] = details: mouse, in vivo, iv, 3 h
Description: Biodistribution in muscle of C57BL/6 mouse bearing mouse B16-F0 cells at 0.74 to 0.92 MBq, iv after 3 hrs

Muscle tissue [11] = details: mouse, in vivo, iv, 6 h
Description: Biodistribution in muscle of C57BL/6 mouse bearing mouse B16-F0 cells at 0.74 to 0.92 MBq, iv after 6 hrs

Lung [12] = details: mouse, in vivo, iv, 1 h
Description: Biodistribution in lung of C57BL/6 mouse bearing mouse B16-F0 cells at 0.74 to 0.92 MBq, iv after 1 hr

Lung [13] = details: mouse, in vivo, iv, 3 h
Description: Biodistribution in lung of C57BL/6 mouse bearing mouse B16-F0 cells at 0.74 to 0.92 MBq, iv after 3 hrs

Lung [14] = details: mouse, in vivo, iv, 6 h
Description: Biodistribution in lung of C57BL/6 mouse bearing mouse B16-F0 cells at 0.74 to 0.92 MBq, iv after 6 hrs

Spleen [15] = details: mouse, in vivo, iv, 1 h
Description: Biodistribution in spleen of C57BL/6 mouse bearing mouse B16-F0 cells at 0.74 to 0.92 MBq, iv after 1 hr

Spleen [16] = details: mouse, in vivo, iv, 3 h
Description: Biodistribution in spleen of C57BL/6 mouse bearing mouse B16-F0 cells at 0.74 to 0.92 MBq, iv after 3 hrs

Kidney [17] = details: mouse, in vivo, iv, 1 h
Description: Biodistribution in kidney of C57BL/6 mouse bearing mouse B16-F0 cells at 0.74 to 0.92 MBq, iv after 1 hr

Kidney [18] = details: mouse, in vivo, iv, 3 h
Description: Biodistribution in kidney of C57BL/6 mouse bearing mouse B16-F0 cells at 0.74 to 0.92 MBq, iv after 3 hrs

Kidney [19] = details: mouse, in vivo, iv, 6 h
Description: Biodistribution in kidney of C57BL/6 mouse bearing mouse B16-F0 cells at 0.74 to 0.92 MBq, iv after 6 hrs

Blood [20] = details: mouse, in vivo, iv, 1 h
Description: Biodistribution in blood of C57BL/6 mouse bearing mouse B16-F0 cells at 0.74 to 0.92 MBq, iv after 1 hr

Blood [21] = details: mouse, in vivo, iv, 3 h
Description: Biodistribution in blood of C57BL/6 mouse bearing mouse B16-F0 cells at 0.74 to 0.92 MBq, iv after 3 hrs

[22] = mouse, in vivo, iv, 1 h; remark: listed apart in the source
Description: Biodistribution in uvea of C57BL/6 mouse bearing mouse B16-F0 cells at 0.74 to 0.92 MBq, iv after 1 hr

[23] = mouse, in vivo, iv, 3 h; remark: listed apart in the source
Description: Biodistribution in uvea of C57BL/6 mouse bearing mouse B16-F0 cells at 0.74 to 0.92 MBq, iv after 3 hrs

[24] = mouse, in vivo, iv, 6 h; remark: listed apart in the source
Description: Biodistribution in uvea of C57BL/6 mouse bearing mouse B16-F0 cells at 0.74 to 0.92 MBq, iv after 6 hrs

[25] = mouse, in vivo, iv, 24 h
Description: Biodistribution in uvea of C57BL/6 mouse bearing mouse B16-F0 cells at 0.74 to 0.92 MBq, iv after 24 hrs

[26] = mouse, in vivo, iv, 72 h; remark: listed apart in the source
Description: Biodistribution in uvea of C57BL/6 mouse bearing mouse B16-F0 cells at 0.74 to 0.92 MBq, iv after 72 hrs

physchem = details: phosphate buffer solution, pH 7.4
Description: Partition coefficient, log P in phosphate buffer solution at pH 7.4

[27] = mouse, in vivo, iv, 1 h; remark: listed apart in the source
Description: Biodistribution in stomach content of C57BL/6 mouse bearing mouse B16-F0 cells at 0.74 to 0.92 MBq, iv after 1 hr

[28] = mouse, in vivo, iv, 3 h; remark: listed apart in the source
Description: Biodistribution in stomach content of C57BL/6 mouse bearing mouse B16-F0 cells at 0.74 to 0.92 MBq, iv after 3 hrs

[29] = mouse, in vivo, iv, 6 h; remark: listed apart in the source
Description: Biodistribution in stomach content of C57BL/6 mouse bearing mouse B16-F0 cells at 0.74 to 0.92 MBq, iv after 6 hrs

Liver [30] = details: mouse, in vivo, iv, 1 h
Description: Biodistribution in liver of C57BL/6 mouse bearing mouse B16-F0 cells at 0.74 to 0.92 MBq, iv after 1 hr

Liver [31] = details: mouse, in vivo, iv, 6 h
Description: Biodistribution in liver of C57BL/6 mouse bearing mouse B16-F0 cells at 0.74 to 0.92 MBq, iv after 6 hrs

[32] = mouse, in vivo, iv, 72 h; remark: listed apart in the source
Description: Drug excretion in mouse B16-F0 cells bearing C57BL/6 mouse urine at 0.74 to 0.92 MBq, iv after 72 hrs

[33] = mouse, in vivo, iv, 72 h; remark: listed apart in the source
Description: Drug excretion in mouse B16-F0 cells bearing C57BL/6 mouse feces at 0.74 to 0.92 MBq, iv after 72 hrs

Row | Structure (SMILES) | Drug uptake [1] | Drug uptake (Brain [2]) | Drug uptake (Brain [3]) | Drug uptake [4] | Drug uptake [5] | Drug uptake [6] | Drug uptake (Liver [7]) | Drug uptake (Liver [8]) | Drug uptake (Muscle tissue [9]) | Drug uptake (Muscle tissue [10]) | Drug uptake (Muscle tissue [11]) | Drug uptake (Lung [12]) | Drug uptake (Lung [13]) | Drug uptake (Lung [14]) | Drug uptake (Spleen [15]) | Drug uptake (Spleen [16]) | Drug uptake (Kidney [17]) | Drug uptake (Kidney [18]) | Drug uptake (Kidney [19]) | Drug uptake (Blood [20]) | also measured
1 | CCN(CC)CCNC(=O)c1cccc2c(=O)c3cc(I)ccc3[nH]c12.Cl | 17.5 % ID/g | 1.6 % ID/g | 1.2 % ID/g | 22.7 % ID/g | 27.81 % ID/g | 32.9 % ID/g | 9.3 % ID/g | 1.2 % ID/g | 1.9 % ID/g | 1.4 % ID/g | 0.9 % ID/g | 23.9 % ID/g | 14 % ID/g | 10 % ID/g | 13.9 % ID/g | 9.9 % ID/g | 17.6 % ID/g | 13 % ID/g | 8.9 % ID/g | 2.08 % ID/g | Drug uptake (Blood [21]): 1.4 % ID/g; Drug uptake [22]: 15.2 % ID/g; Drug uptake [23]: 16.9 % ID/g; Drug uptake [24]: 19.5 % ID/g; Drug uptake [25]: 27.5 % ID/g; Drug uptake [26]: 26.4 % ID/g; logD (physchem): 0.27
2 | CCN(CC)CCNC(=O)c1ccc(I)cc1.Cl | 0.88 % ID/g | 1.5 % ID/g | 0.8 % ID/g | 7.4 % ID/g | 3.7 % ID/g | 3.3 % ID/g | 3.3 % ID/g | 0.4 % ID/g | 1.3 % ID/g | 0.4 % ID/g | 0.1 % ID/g | 5.5 % ID/g | 2 % ID/g | 1 % ID/g | 4 % ID/g | 0.8 % ID/g | 7.3 % ID/g | 3.1 % ID/g | 1.6 % ID/g | 1.1 % ID/g | Drug uptake [27]: 10.1 % ID/g; Drug uptake [28]: 4.3 % ID/g; Drug uptake [29]: 4.5 % ID/g; Drug uptake (Liver [30]): 5.9 % ID/g; Drug uptake (Liver [31]): 2.6 % ID/g; Drug uptake (Blood [21]): 0.2 % ID/g; Drug uptake [22]: 13.1 % ID/g; Drug uptake [23]: 12 % ID/g; Drug uptake [24]: 13 % ID/g; Drug uptake [25]: 6.1 % ID/g; Drug uptake [26]: 3.8 % ID/g; Drug uptake [32]: 83.1 %ID; Drug uptake [33]: 4.8 %ID; logD (physchem): 1.34
3 | CCN(CC)CCNC(=O)c1cccc2c(=O)c3cc([125I])ccc3[nH]c12.Cl | – | – | – | – | – | – | – | – | – | – | – | – | – | – | – | – | – | – | – | – | Drug uptake [32]: 10.4 %ID; Drug uptake [33]: 38.4 %ID
